# Test results: patent publication US20220290184A1, “DONOR PIGS FOR XENOTRANSPLANTATION” (NZENO LIMITED, priority 2019, published 2022)
# “Also recorded” adds a separate entry of the source. Marks after values point to notes of the source that are not given here. Where a SMILES comes first, the peptide text is derived from it. The star is where a group is joined. Cbz = O=C(OCc1ccccc1)*
# Tests used:
# Format in all cases: cell-based, pig
# CMAH gene = experiment: CRISPR activity assay with TIDE analysis, CMAH target locus
# Method: Cell culture and transfection was performed as described in Example 4 section 4.1.2.
# The CRISPR activity assay was performed as described in Example 4 section 4.1.3 using the CMAH-specific CRISPRs (68rev, 165fw) and CMAH primers (CMAHF-[…] (SEQ ID NO: 48) and CMAHR-[…]3 (SEQ ID NO: 49)).
# porcine SCNT embryos = experiment: Zona-free somatic cell nuclear transfer (SCNT) embryo development in vitro
# Method: Ovaries were sourced from pre-pubertal gilts slaughtered at the Ruakura abattoir (AgResearch, New Zealand). Cumulus-oocyte complexes (COCs) were recovered by follicular aspiration and matured in vitro (IVM) for 44 h. Two IVM systems to mature porcine oocytes were compared: biphasic (ESOF and LSOF) IVM1/2 medium containing 1 mM dibutyryl cyclic adenosine monophosphate for the first 20-24 h (Bagg et al., 2006; Somfai and Hirao, 2011) and FLI medium supplemented with FGF2, LIF and IGF1 for the entire IVM period (Yuan et al., 2017).
# COCs were denuded by vortexing with 0.1% hyaluronidase (Sigma) at 2000 rpm for about 60-90 sec. Oocytes were washed twice in HEPES-buffered TCM199 medium (H199)+10% FCS. Denuded oocytes were incubated for 10 min with 0.2M sucrose in H199+10% FCS. Oocytes that maintained a regular, round shape (but smaller diameter) along with a first polar body (1PB) were selected for use.
# For zona-free SCNT, pronase was used to remove the zona pellucida. Oocytes were washed thoroughly before staining DNA with 5 μg/mL H33342 plus 7.5 μg/mL cytochalasin B (all Sigma) for 5 min. A 24 μm outer diameter blunt-ended pipette was used for UV-assisted enucleation of metaphase II stage oocytes at 35° C.
# Donor cells (e.g. NZK1 kidney fibroblasts) were trypsinised to a single cell suspension after 5-7 days in medium with 0.5% FCS. Single cells were adhered to each enucleated cytoplast with the aid of 20 μg/mL phytohemagglutinin in H199+3 mg/mL BSA. […] Following fusion, reconstructed embryos were held in embryo culture medium without Ca+10% FCS+5 μg/mL cytochalasin B at 38.5° C. in 5% CO2 in air for 2-4 h before activation.
# To maintain high levels of maturation promoting factor-cyclin B complex in oocytes aiding nuclear reprogramming, some experiments compared the addition of 5 μM of the proteasome inhibitor MG132 (Sigma). This was added to media formulations from the time of sucrose selection of oocytes until activation of NT reconstructed embryos (Le Bourhis et al., 2010).
# Activation of reconstructed NT embryos was initiated with three direct current pulses of 1.0-1.5 kV/cm for 80 μs each, in buffer containing 0.1 mM calcium, ˜50-52 h after the start of IVM.
# Within 5 min of electrical stimulation, reconstructed embryos were transferred to culture medium (e.g. ESOF) supplemented with 2 mM 6-dimethylaminopurine+5 μg/mL cytochalasin B and cultured individually in 5 μL drops for 3 h at 38.5° C. In 5% CO2. Afterwards, embryos were washed thoroughly in HEPES SOF before in vitro culture for 6-7 days. […] Embryo development was assessed on Day 6 or 7 and the numbers of nuclei in resulting blastocysts determined in selected experiments.
# [1] = system: parthenogenetically activated porcine oocytes; experiment: Parthenogenetic oocyte activation (PG) embryo development in vitro; conditions: PG embryos; 5 μM MG132 from oocyte selection until activation
# [2] = SCNT embryos, 5 μM MG132 from oocyte selection until activation
Molecule,CRISPR activity compared to the second CMAH CRISPR 165fw (CMAH gene),"Benefit in terms of in vitro development following SCNT or PG (porcine SCNT embryos; 5 μM MG132 between oocyte selection and activation, preliminary experiment)",Blastocyst Development Day 7 (porcine SCNT embryos; [2]) [%^b],Cleavage (porcine SCNT embryos; [2]) [%],Fusion (porcine SCNT embryos; [2]) [%],Blastocyst Development Day 7 [1] [%],Cleavage [1] [%]
"68rev: guide RNA targeting exon 3 of CMAH, TAAGAATAAGAGCCGCCTGA (SEQ ID NO: 46) (listed as DNA, chemistry not given here)",higher activity,–,–,–,–,–,–
CC(C)C[C@@H](C=O)NC(=O)[C@H](CC(C)C)NC(=O)[C@H](CC(C)C)NC(=O)OCc1ccccc1 [MG132] (Cbz-Leu-Leu-Leu-aldehyde),–,unable to show any benefit; also recorded: showed no benefit,11,99,49,23,100
